From patent publication US20220251109A1, “OXAAZAQUINAZOLINE-7(8H)-KETONE COMPOUND, PREPARATION METHOD THEREFOR AND PHARMACEUTICAL APPLICATION THEREOF” (GENFLEET THERAPEUTICS (SHANGHAI) INC., priority 2019, published 2022)

Columns and labels:
[1] = system: NCI-H358 cells (Kras G12C mutation); assay: Cell proliferation inhibition experiment, 3D model, CellTiter-Glo (NCI-H358); assay type: cell-based, human; settings: NCI-H358, 3D sphere plate, 5 days, 2% FBS
Experimental: (§1) NCI-H358 was a human non-small cell lung cancer cell line with Kras G12C mutation, cultured in 10% FBS RPMI-1640 medium; A549 was a human lung adenocarcinoma cell line with Kras G12S mutation, cultured in 10% FBS F-12K medium. The cells in the logarithmic growth phase was taken, digested with trypsin EDTA, collected and counted, and H358 was adjusted to 1.8E4 cells/ml using 2% FBS RPMI-1640 medium, and A549 was adjusted to 8.9E3 cells/ml using 2% FBS F-12K medium; 800 (45 μl) H358 or 400 (45 μl) A549 cells were seeded in a 384-well sphere plate respectively, cultured overnight to establish a 3D cell model. DMSO was used to prepare 1000× compound 3.16-fold gradient concentration stock solution, and 2% FBS medium was used to dilute 100-fold to 10× compound stock solution. On the second day after cell seeding, 5 μl 10× compound stock solution was added to each cell culture well, the final concentration was 1×, and DMSO content was 0.1%. DMSO was used as the experimental control (control) and 2% FBS medium as the blank control (blank). After the compound and cells were added and cultured for 5 days, 25 μl CellTiter-Glo working solution was added to each well, mixed at 400 rpm and incubated for 30 minutes. After 30 minutes at room temperature, 40 μl of the mixture was transferred to a 384-well plate with a non-transparent white bottom, the luminescence chemiluminescence value was read, and the cells proliferation inhibition rate IR (%)=(RLU control-RLU compound)/(RLU control-RLU blank)×100% was calculated, Prism 6 four-parameter method was used to fit the compound's gradient dilution concentration and the corresponding cell proliferation inhibition rate, and the IC50 value was calculate.

[2] = system: A549 cells (Kras G12S mutation); assay: Cell proliferation inhibition experiment, 3D model, CellTiter-Glo (A549); assay type: cell-based, human; settings: A549, 3D sphere plate, 5 days, 2% FBS
Experimental: as §1

| SMILES | IC50 ([1]; Homo sapiens, NCI-H358, 120 h) [nM] | IC50 ([2]; Homo sapiens, A549, 120 h) [nM] | IC50 [1] [nM] | IC50 [2] [nM] |
| --- | --- | --- | --- | --- |
| C=CC(=O)N1CCN2c3nc(=O)n(-c4c(C)ncnc4C(C)C)c4cc(-c5c(C)ccc6[nH]ncc56)c(Cl)c(c34)OC[C@@H]2C1 (single isomer, unassigned) [Compound Z45-1] |  | > 10000 | 3 |  |
| [2H]C([2H])([2H])Oc1cccc(F)c1-c1nc2c3c(nc(=O)n2-c2c(C)ccnc2C(C)C)N2CCN(C(=O)C=C)C[C@@H]2COc3c1F (single isomer, unassigned) [Compound Z100-2] |  |  | 31 | > 10000 |
| C=CC(=O)N1CCN2c3nc(=O)n(-c4c(C)ccnc4C(C)C)c4nc(-c5c(O)cccc5F)c(Cl)c(c34)OC[C@H]2C1 (single isomer, unassigned) [Compound Z23-2] |  |  | 21 | > 10000 |
| C=CC(=O)N1CCN2c3nc(=O)n(-c4c(C)ccnc4C(C)C)c4nc(-c5cccc(C(F)(F)F)c5F)c(Cl)c(c34)OC[C@@H]2C1 (atropisomer, axis not shown) [Compound Z57-1] |  |  | 111 | > 10000 |
| C=CC(=O)N1CCN2c3nc(=O)n(-c4c(C)ccnc4C(C)C)c4cc(-c5c(O)cccc5F)c(Cl)c(c34)OC[C@H]2C1 (single isomer, unassigned) [Compound Z29-3] |  |  | 165 | > 10000 |
| C=CC(=O)N1CCN2c3nc(=O)n(-c4c(C)ccnc4C(C)C)c4nc(-c5ccccc5F)c(Cl)c(c34)OC[C@@H]2C1 (single isomer, unassigned) [Compound Z46-1] |  | 8360 | 89 |  |
| C=CC(=O)N1CCN2c3nc(=O)n(CC4CC4)c4cc(-c5c(O)cccc5F)c(Cl)c(c34)OC[C@@H]2C1 [Compound Z37-2] | 276 | 29500 |  |  |
| C=CC(=O)N1CCN2c3nc(=O)n(-c4c(C)ccnc4C(C)C)c4nc(-c5c(O)cccc5F)cc(c34)OC[C@H]2C1 (atropisomer, axis not shown) [Compound Z25-2] |  |  | 281 | > 10000 |
| C=CC(=O)N1CCN2c3nc(=O)n(-c4c(C#N)cnn4C(C)(C)C)c4nc(-c5ccccc5F)c(Cl)c(c34)OC[C@H]2C1 (single isomer, unassigned) [Compound Z109-2] |  |  | 106 | 9780 |
| C=CC(=O)N1CCN2c3nc(=O)n(-c4c(C)ccnc4C(C)C)c4cc(-c5c(C)ccc6[nH]ncc56)cc(c34)OC[C@@H]2C1 (atropisomer, axis not shown) [Compound Z19-1] |  |  | 321 | 6990 |
| C=CC(=O)N1CCN2c3nc(=O)n(-c4c(C)ccnc4C(C)C)c4nc(-c5ccc(F)cc5F)c(Cl)c(c34)OC[C@@H]2C1 (atropisomer, axis not shown) [Compound Z49-2] |  |  | 113 | > 10000 |
| C=CC(=O)N1CCN2c3nc(=O)n(-c4c(C)ccnc4C(C)C)c4nc(-c5c(O)cccc5F)cc(c34)OC[C@H]2C1 (single isomer, unassigned) [Compound Z25-1] |  |  | 46 | > 10000 |
| C=CC(=O)N1CCN2c3nc(=O)n(-c4c(C)ncnc4C(C)C)c4cc(-c5c(C)ccc6[nH]ncc56)c(Cl)c(c34)OC[C@@H]2C1 (single isomer, unassigned) [Compound Z45-4] |  |  | 65 | > 10000 |

The next lines start with the values.

| IC50 ([1]; Homo sapiens, NCI-H358, 120 h) [nM] | IC50 ([2]; Homo sapiens, A549, 120 h) [nM] | IC50 [1] [nM] | IC50 [2] [nM] | SMILES |
| --- | --- | --- | --- | --- |
| 11 | > 10000 |  |  | C=CC(=O)N1CCN2c3nc(=O)n(-c4c(C)ccnc4C(C)C)c4nc(-c5c(F)cc(F)cc5F)c(Cl)c(c34)OC[C@@H]2C1 [Compound Z56] |
| 204 | > 10000 |  |  | C=CC(C)N1CCN2c3nc(=O)n(-c4c(C)ccnc4C(C)C)c4nc(-c5cnccc5C)c(Cl)c(c34)OC[C@@H]2C1 (stereo partly drawn) [Compound Z81] |
| 118 | > 10000 |  |  | C=CC(=O)N1CCN2c3nc(=O)n(-c4c(C)ccnc4C(C)C)c4cc(-c5c(C)ccc6[nH]ncc56)cc(c34)OCCC2C1 (stereo not drawn) [Compound Z22] |
| 50 | > 10000 |  |  | C=CC(=O)N1CCN2c3nc(=O)n(-c4c(C)ccnc4C(C)C)c4nc(-c5ccc(F)cc5)c(Cl)c(c34)OC[C@@H]2C1 [Compound Z50] |
|  |  | 36 | > 10000 | C=CC(=O)N1CCN2c3nc(=O)n(-c4c(C)ccnc4C(C)C)c4cc(-c5c(O)cccc5F)cc(c34)OC[C@@H]2C1 [Compound Z15, (S)-2-acryloyl-10-(2-fluoro-6-hydroxyphenyl)-8-(2-isopropyl-4-methylpyridin-3-yl)-1,2,3,4,13,13a-hexahydropyrazino[2′,1′:3,4][1,4]oxazepine[5,6,7-de]quinazolin-7 (8H)-one] |
| 6 | > 10000 |  |  | C=CC(=O)N1CCN2c3nc(=O)n(-c4c(C)ccnc4C(C)C)c4nc(-c5ccccc5C(C)C)c(Cl)c(c34)OC[C@@H]2C1 [Compound Z62] |
| 42 | > 10000 |  |  | C=CC(=O)N1CCN2c3nc(=O)n(-c4c(C)ccnc4C(C)C)c4nc(-c5c(F)cccc5C(F)(F)F)c(Cl)c(c34)OC[C@@H]2C1 [Compound Z70] |
| 22 | > 10000 |  |  | C=CC(=O)N1CCN2c3nc(=O)n(-c4c(C)ccnc4C(C)C)c4nc(-c5cccc(F)c5)c(Cl)c(c34)OC[C@@H]2C1 [Compound Z48] |
| 2 | > 10000 |  |  | C=CC(=O)N1CCN2c3nc(=O)n(-c4c(C)ccnc4C(C)C)c4nc(-c5c(O)cccc5F)c(Cl)c(c34)OC[C@H]2C1 [Compound Z23, (5aR)-7-acryloyl-3-chloro-2-(2-fluoro-6-hydroxyphenyl)-12-(2-isopropyl-4-methylpyridin-3-yl)-5,5a,6,7,8,9-hexahydro-4-oxo-1,7,9a,10,12-pentazabenzo[4,5] cyclohepta[1,2,3-de]naphthalen-11 (12H)-one] |
| 66 | > 10000 |  |  | C=CC(=O)N1CCN2c3nc(=O)n(-c4c(C)ccnc4C(C)C)c4nc(-c5cc(F)cc(F)c5O)c(Cl)c(c34)OC[C@@H]2C1 [Compound Z54] |
| 95 | > 10000 |  |  | C=CC(=O)N1CCN2c3nc(=O)n(-c4c(C)ccnc4C(C)C)c4nc(-c5ccncc5F)c(Cl)c(c34)OC[C@@H]2C1 [Compound Z69] |
| 308 | 23500 |  |  | C=CC(=O)N1CCN2c3nc(=O)n(CC(C)C)c4cc(-c5c(O)cccc5F)c(Cl)c(c34)OC[C@@H]2C1 [Compound Z32] |
| 254 | > 10000 |  |  | C=CC(=O)N1CCN2c3nc(=O)n(-c4c(C)ccnc4C(C)C)c4nc(-c5cccnc5C)c(Cl)c(c34)OC[C@@H]2C1 [Compound Z78] |
| 184 | > 10000 |  |  | C=CC(=O)N1CCN2c3nc(=O)n(C4CC4)c4cc(-c5c(O)cccc5F)cc(c34)OCCC2C1 (stereo not drawn) [Compound Z28] |
| 2 | 7450 |  |  | C=CC(=O)N1CCN2c3nc(=O)n(-c4ccccc4C(C)C)c4cc(-c5c(C)ccc6[nH]ncc56)c(Cl)c(c34)OCC2C1 (stereo not drawn) [Compound Z1] |
|  |  | 68 | 46400 | C=CC(=O)N1CCN2c3nc(=O)n(-c4c(C)ccnc4C(C)C)c4cc(-c5c(C)ccc6[nH]ncc56)cc(c34)OC[C@@H]2C1 [Compound Z19, (S)-2-acryloyl-8-(2-isopropyl-4-methylpyridin-3-yl)-10-(5-methyl-1H-indazol-4-yl)-1,2,3,4,13,13a-hexahydropyrazino[2′,1′:3,4][1,4]oxazepine[5,6,7-de]quinazolin-7 (8H)-one] |
| 107 | 12400 |  |  | C=CC(=O)N1CCN2c3nc(=O)n(-c4c(C)ccnc4C(C)C)c4cc(-c5c(C)ccc6[nH]ncc56)cc(c34)OC[C@H]2C1 [Compound Z18, (R)-2-acryloyl-8-(2-isopropyl-4-methylpyridin-3-yl)-10-(5-methyl-1H-indazol-4-yl)-1,2,3,4,13,13a-hexahydropyrazino[2′,1′:3,4][1,4]oxazepine[5,6,7-de]quinazolin-7 (8H)-one] |
|  |  | 94 | 24200 | C=CC(=O)N1CCN2c3nc(=O)n(-c4c(C)ccnc4C(C)C)c4nc(-c5c(O)cccc5F)cc(c34)OC[C@H]2C1 [Compound Z25, (R)-7-acryloyl-2-(2-fluoro-6-hydroxyphenyl)-12-(2-isopropyl-4-methylpyridin-3-yl)-5,5a,6,7,8,9-hexahydro-4-oxo-1,7,9a,10,12-pentazabenzo[4,5]cyclohepta[1,2,3-de]naphthalen-11 (12H)-one] |
| 164 | > 10000 |  |  | C=CC(=O)N1CCN2c3nc(=O)n(-c4c(C)ccnc4C(C)C)c4cc(-c5ncccc5F)c(Cl)c(c34)OC[C@@H]2C1 [Compound Z35] |
| 283 | > 10000 |  |  | C=CC(=O)N1CCN2c3nc(=O)n(C4CC4)c4cc(-c5c(C)ccc6[nH]ncc56)cc(c34)OCCC2C1 (stereo not drawn) [Compound Z21, 2-acryloyl-8-cyclopropyl-10-(5-methyl-1H-indazol-4-yl)-1,3,4,13,14,14a-hexa hydro-2H-pyrazino[1′,2′:5,6][1,5]oxazolidine[4,3,2-de]quinazolin-7 (8H)-one] |
